In patent EP0062407A1, “Therapeutic compounds containing beta-lactams” (BEECHAM GROUP PLC, priority 1981, dated 1982):
Converted amounts (≈) assume the structure as drawn.

Assays:
S. aureus Russell = test: Antibacterial activity of quaternary amine derivatives alone; type: cell-based; conditions: Staphylococcus aureus, compound alone
K. aerogenes E70 = test: as above; type: cell-based; conditions: Klebsiella aerogenes, compound alone
E. coli JT39 = test: as above; type: cell-based; conditions: Escherichia coli, compound alone
Staph. aureus Russell = test: Synergistic activity in vitro with amoxycillin; type: cell-based, Staphylococcus aureus; set-up: Synergistic activity in vitro: unit not given beside the values; conditions: for Synergistic activity in vitro: Staph. aureus Russell
Klebsiella aerogenes E70 = test: Synergistic activity in vitro with amoxycillin; type: cell-based; set-up: Synergistic activity in vitro: unit not given beside the values; conditions: for Synergistic activity in vitro: Klebsiella aerogenes E70
E. coli JT 39 = test: Synergistic activity in vitro with amoxycillin; type: cell-based, Escherichia coli; conditions: for Synergistic activity in vitro: E. coli JT 39
[1] = amoxycillin alone, no inhibitor
[2] = amoxycillin with inhibitor, Inhibitor Conc 1
[3] = amoxycillin with inhibitor, Inhibitor Conc 5

Question: How did the MIC (S. aureus Russell) turn out when `C[N+](C)(C)C/C=C1\O[C@@H]2CC(=O)N2[C@H]1C(=O)[O-]` [Example No. 7, 9-N,N,N,-trimethylammonio-9-deoxyclavulanate] was run?
Answer: 4 µg/mL (≈ 16.6 µM)

Question: And the MIC (K. aerogenes E70)?
Answer: 62.5 µg/mL (≈ 260 µM)

Question: What about the MIC (E. coli JT39) of the same molecule?
Answer: 16 µg/mL (≈ 66.6 µM)

Question: Which results are given for `CC1(C)S[C@@H]2[C@H](NC(=O)[C@H](N)c3ccc(O)cc3)C(=O)N2[C@H]1C(=O)O` [Amoxycillin, reference compound]?
Answer: MIC µg/ml amoxycillin (Staph. aureus Russell; S. aureus Russell, amoxycillin alone): 500 µg/mL; Synergistic activity in vitro (Staph. aureus Russell; [1]): 1000; MIC µg/ml amoxycillin (Klebsiella aerogenes E70; K. aerogenes E70, amoxycillin alone): 1000 µg/mL; Synergistic activity in vitro (Klebsiella aerogenes E70; [1]): 500; MIC µg/ml amoxycillin (E. coli JT 39; E. coli JT39, amoxycillin alone): 2000 µg/mL; Synergistic activity in vitro (E. coli JT 39; [1]): ≥2000

Question: How did the MIC (S. aureus Russell) turn out when `CC[N+](CC)(CC)C/C=C1\O[C@@H]2CC(=O)N2[C@H]1C(=O)[O-]` [Example No. 6, 9-N,N,N-triethylammonio-9-deoxyclavulanate] was run?
Answer: 31 µg/mL (≈ 110 µM)

Question: And the MIC (K. aerogenes E70)?
Answer: 500 µg/mL (≈ 1770 µM)

Question: And the MIC (E. coli JT39)?
Answer: 125 µg/mL (≈ 443 µM)

Question: How did the MIC (S. aureus Russell) turn out when `CC[N+](C)(C)C/C=C1\O[C@@H]2CC(=O)N2[C@H]1C(=O)[O-]` [Example No. 5, 9-(N,N-dimethyl-N-ethyl)ammonio-9-deoxyclavulanate] was run?
Answer: 31 µg/mL (≈ 122 µM)

Question: And the MIC (K. aerogenes E70)?
Answer: 250 µg/mL (≈ 983 µM)

Question: What about the MIC (E. coli JT39) of the same molecule?
Answer: 62 µg/mL (≈ 244 µM)

Question: `C[N+](C)(C/C=C1\O[C@@H]2CC(=O)N2[C@H]1C(=O)[O-])Cc1ccccc1` [Example No 1, 9-(N-Benzyl-N,N-dimethyl)ammonio-9-deoxyclavulanate] was tested. Which “Synergistic activity in vitro” value (Staph. aureus Russell; [2]) did it give?
Answer: 0.62

Question: And the “Synergistic activity in vitro” value (Staph. aureus Russell; [3])?
Answer: 0.08

Question: What about the “Synergistic activity in vitro” value (Klebsiella aerogenes E70; [2]) of the same molecule?
Answer: 6.2

Question: What about the “Synergistic activity in vitro” value (Klebsiella aerogenes E70; [3]) of the same molecule?
Answer: 3.1

Question: What about the “Synergistic activity in vitro” value (E. coli JT 39; [2]) of the same molecule?
Answer: 8

Question: And the “Synergistic activity in vitro” value (E. coli JT 39; [3])?
Answer: 2

Question: `CC[N+](C)(C/C=C1\O[C@@H]2CC(=O)N2[C@H]1C(=O)[O-])Cc1ccccc1` (some centres unmarked) [Example No 2, 9-(N-Benzyl-N-ethvl-N-methyl)ammonio-9-deoxyclavulanate] was tested. Which “Synergistic activity in vitro” value (Staph. aureus Russell; [2]) did it give?
Answer: 0.16

Question: And the “Synergistic activity in vitro” value (Klebsiella aerogenes E70; [2])?
Answer: 12.5

Question: And the “Synergistic activity in vitro” value (Klebsiella aerogenes E70; [3])?
Answer: 3.1

Question: And the “Synergistic activity in vitro” value (E. coli JT 39; [2])?
Answer: 16

Question: What about the “Synergistic activity in vitro” value (E. coli JT 39; [3]) of the same molecule?
Answer: 4
